Reference: the NIST ThermoML archive (doi:10.1021/acs.jced.8b00521)

Test: xn = mol fraction of the nth substance listed
Settings: Liquid; for viscosity: Capillary tube (Ostwald / Ubbelohde) method; for mass density: Vibrating tube method

CCCCCCCC(=O)OCC [ethyl octanoate] + CCCCCCCCCCCC(=O)OC
Settings | mass density, 303.15 K [kg/m3] | mass density, 313.15 K [kg/m3] | viscosity, 303.15 K [mPa·s] | viscosity, 313.15 K [mPa·s]
100 kPa, x2 = 0.1 | 859 | 850 | 1.41 | 1.22
100 kPa, x2 = 0.1999 | 859 | 850 | 1.52 | 1.31
100 kPa, x2 = 0.3001 | 859 | 851 | 1.61 | 1.39
100 kPa, x2 = 0.4 | 860 | 851 | 1.71 | 1.46
100 kPa, x2 = 0.4999 | 860 | 851 | 1.82 | 1.55
100 kPa, x2 = 0.6001 | 860 | 852 | 1.96 | 1.65
100 kPa, x2 = 0.6999 | 861 | 852 | 2.08 | 1.75
100 kPa, x2 = 0.8001 | 861 | 852 | 2.19 | 1.85
100 kPa, x2 = 0.9 | 862 | 853 | 2.32 | 1.95
2940 kPa, x2 = 0.4999 | 862 | – | 1.9 | –
2950 kPa, x2 = 0.6001 | – | 853 | – | 1.71
2960 kPa, x2 = 0.1 | 860 | – | 1.46 | –
2960 kPa, x2 = 0.3001 | 861 | – | 1.66 | –
2960 kPa, x2 = 0.8001 | – | 854 | – | 1.93
2970 kPa, x2 = 0.6999 | – | 854 | – | 1.82
2980 kPa, x2 = 0.1 | – | 851 | – | 1.25
2980 kPa, x2 = 0.1999 | 860 | 852 | 1.56 | 1.34
2980 kPa, x2 = 0.4 | 861 | – | 1.75 | –
2990 kPa, x2 = 0.3001 | – | 852 | – | 1.43
2990 kPa, x2 = 0.6001 | 862 | – | 2.05 | –
2990 kPa, x2 = 0.9 | 863 | – | 2.4 | –
3000 kPa, x2 = 0.8001 | 863 | – | 2.28 | –
3030 kPa, x2 = 0.4 | – | 853 | – | 1.52
3040 kPa, x2 = 0.4999 | – | 853 | – | 1.59
3070 kPa, x2 = 0.9 | – | 855 | – | 2.03
3080 kPa, x2 = 0.6999 | 862 | – | 2.15 | –
5960 kPa, x2 = 0.3001 | – | 854 | – | 1.48
5980 kPa, x2 = 0.8001 | 865 | – | 2.37 | –
5990 kPa, x2 = 0.6999 | – | 856 | – | 1.89
5990 kPa, x2 = 0.8001 | – | 856 | – | 1.99
6000 kPa, x2 = 0.1 | – | 853 | – | 1.29
6000 kPa, x2 = 0.1999 | – | 854 | – | 1.38
6000 kPa, x2 = 0.4999 | 863 | – | 1.96 | –
6000 kPa, x2 = 0.6001 | – | 855 | – | 1.76
6010 kPa, x2 = 0.1 | 861 | – | 1.51 | –
6020 kPa, x2 = 0.6001 | 864 | – | 2.12 | –
6030 kPa, x2 = 0.1999 | 862 | – | 1.6 | –
6040 kPa, x2 = 0.6999 | 864 | – | 2.24 | –
6050 kPa, x2 = 0.4 | – | 854 | – | 1.56
6060 kPa, x2 = 0.9 | 865 | – | 2.48 | –
6080 kPa, x2 = 0.3001 | 863 | – | 1.71 | –
6090 kPa, x2 = 0.9 | – | 857 | – | 2.09
6100 kPa, x2 = 0.4 | 863 | – | 1.82 | –
6100 kPa, x2 = 0.4999 | – | 855 | – | 1.65
8950 kPa, x2 = 0.8001 | 867 | – | 2.44 | –
8980 kPa, x2 = 0.1999 | 863 | – | 1.66 | –
8980 kPa, x2 = 0.3001 | 864 | – | 1.78 | –
8990 kPa, x2 = 0.4 | 865 | – | 1.88 | –
8990 kPa, x2 = 0.9 | 868 | – | 2.56 | –
9030 kPa, x2 = 0.1 | 863 | – | 1.55 | –
9040 kPa, x2 = 0.6999 | 866 | – | 2.31 | –
9050 kPa, x2 = 0.6001 | 866 | – | 2.19 | –
9090 kPa, x2 = 0.4999 | 865 | – | 2.02 | –
11960 kPa, x2 = 0.6999 | 868 | – | 2.38 | –
11960 kPa, x2 = 0.8001 | 869 | – | 2.5 | –
11980 kPa, x2 = 0.1 | 864 | – | 1.59 | –
12000 kPa, x2 = 0.3001 | 866 | – | 1.83 | –
12010 kPa, x2 = 0.6001 | 867 | – | 2.24 | –
12020 kPa, x2 = 0.1999 | 865 | – | 1.7 | –
12020 kPa, x2 = 0.4999 | 867 | – | 2.08 | –
12030 kPa, x2 = 0.9 | 869 | – | 2.64 | –
12040 kPa, x2 = 0.4 | 866 | – | 1.94 | –
14940 kPa, x2 = 0.6001 | 869 | – | 2.3 | –
14970 kPa, x2 = 0.6999 | 870 | – | 2.44 | –
14970 kPa, x2 = 0.8001 | 870 | – | 2.56 | –
14980 kPa, x2 = 0.9 | 871 | – | 2.7 | –
15020 kPa, x2 = 0.1 | 866 | – | 1.64 | –
15040 kPa, x2 = 0.4999 | 868 | – | 2.13 | –
15070 kPa, x2 = 0.1999 | 867 | – | 1.75 | –
15070 kPa, x2 = 0.3001 | 867 | – | 1.88 | –
15080 kPa, x2 = 0.4 | 868 | – | 2 | –
